In patent US20160287666A1 (priority 2015, published 2016):
Ends that are not written are not given here.

How the values were obtained:
[1] = molecular target: human Nav1.7 (Homo sapiens, UniProt Q15858, W1161R); assay type: cell-based
[2] = molecular target: T1, human Nav1.6 (Homo sapiens, UniProt Q9UQD0); assay type: cell-based
[3] = molecular target: T1, human Nav1.6; assay: cell-based or functional assay
[4] = test system: acute thermal pain; details: rat, in vivo
[5] = test system: CFA-induced tactile allodynia; design: species or system mice; details: mouse, in vivo
[6] = test system: CFA-induced thermal hyperalgesia; design: species or system mice; details: mouse, in vivo; for CFA-induced thermal hyperalgesia (thermal latency, Hargreaves test): sc
[7] = test system: carrageenan-induced thermal hyperalgesia; design: species or system mice; details: mouse, in vivo
[8] = test system: acute thermal pain; details: rat, in vivo; remark: listed apart in the source
[9] = test system: injury-induced pain (formalin); details: rat, in vivo
[10] = test system: thermal pain; design: species or system mice; details: in vivo
[11] = molecular target: human Nav1.7 (human) (UniProt Q15858); assay: cell-based or functional assay

T1 sequence (Q9UQD0 whole entry): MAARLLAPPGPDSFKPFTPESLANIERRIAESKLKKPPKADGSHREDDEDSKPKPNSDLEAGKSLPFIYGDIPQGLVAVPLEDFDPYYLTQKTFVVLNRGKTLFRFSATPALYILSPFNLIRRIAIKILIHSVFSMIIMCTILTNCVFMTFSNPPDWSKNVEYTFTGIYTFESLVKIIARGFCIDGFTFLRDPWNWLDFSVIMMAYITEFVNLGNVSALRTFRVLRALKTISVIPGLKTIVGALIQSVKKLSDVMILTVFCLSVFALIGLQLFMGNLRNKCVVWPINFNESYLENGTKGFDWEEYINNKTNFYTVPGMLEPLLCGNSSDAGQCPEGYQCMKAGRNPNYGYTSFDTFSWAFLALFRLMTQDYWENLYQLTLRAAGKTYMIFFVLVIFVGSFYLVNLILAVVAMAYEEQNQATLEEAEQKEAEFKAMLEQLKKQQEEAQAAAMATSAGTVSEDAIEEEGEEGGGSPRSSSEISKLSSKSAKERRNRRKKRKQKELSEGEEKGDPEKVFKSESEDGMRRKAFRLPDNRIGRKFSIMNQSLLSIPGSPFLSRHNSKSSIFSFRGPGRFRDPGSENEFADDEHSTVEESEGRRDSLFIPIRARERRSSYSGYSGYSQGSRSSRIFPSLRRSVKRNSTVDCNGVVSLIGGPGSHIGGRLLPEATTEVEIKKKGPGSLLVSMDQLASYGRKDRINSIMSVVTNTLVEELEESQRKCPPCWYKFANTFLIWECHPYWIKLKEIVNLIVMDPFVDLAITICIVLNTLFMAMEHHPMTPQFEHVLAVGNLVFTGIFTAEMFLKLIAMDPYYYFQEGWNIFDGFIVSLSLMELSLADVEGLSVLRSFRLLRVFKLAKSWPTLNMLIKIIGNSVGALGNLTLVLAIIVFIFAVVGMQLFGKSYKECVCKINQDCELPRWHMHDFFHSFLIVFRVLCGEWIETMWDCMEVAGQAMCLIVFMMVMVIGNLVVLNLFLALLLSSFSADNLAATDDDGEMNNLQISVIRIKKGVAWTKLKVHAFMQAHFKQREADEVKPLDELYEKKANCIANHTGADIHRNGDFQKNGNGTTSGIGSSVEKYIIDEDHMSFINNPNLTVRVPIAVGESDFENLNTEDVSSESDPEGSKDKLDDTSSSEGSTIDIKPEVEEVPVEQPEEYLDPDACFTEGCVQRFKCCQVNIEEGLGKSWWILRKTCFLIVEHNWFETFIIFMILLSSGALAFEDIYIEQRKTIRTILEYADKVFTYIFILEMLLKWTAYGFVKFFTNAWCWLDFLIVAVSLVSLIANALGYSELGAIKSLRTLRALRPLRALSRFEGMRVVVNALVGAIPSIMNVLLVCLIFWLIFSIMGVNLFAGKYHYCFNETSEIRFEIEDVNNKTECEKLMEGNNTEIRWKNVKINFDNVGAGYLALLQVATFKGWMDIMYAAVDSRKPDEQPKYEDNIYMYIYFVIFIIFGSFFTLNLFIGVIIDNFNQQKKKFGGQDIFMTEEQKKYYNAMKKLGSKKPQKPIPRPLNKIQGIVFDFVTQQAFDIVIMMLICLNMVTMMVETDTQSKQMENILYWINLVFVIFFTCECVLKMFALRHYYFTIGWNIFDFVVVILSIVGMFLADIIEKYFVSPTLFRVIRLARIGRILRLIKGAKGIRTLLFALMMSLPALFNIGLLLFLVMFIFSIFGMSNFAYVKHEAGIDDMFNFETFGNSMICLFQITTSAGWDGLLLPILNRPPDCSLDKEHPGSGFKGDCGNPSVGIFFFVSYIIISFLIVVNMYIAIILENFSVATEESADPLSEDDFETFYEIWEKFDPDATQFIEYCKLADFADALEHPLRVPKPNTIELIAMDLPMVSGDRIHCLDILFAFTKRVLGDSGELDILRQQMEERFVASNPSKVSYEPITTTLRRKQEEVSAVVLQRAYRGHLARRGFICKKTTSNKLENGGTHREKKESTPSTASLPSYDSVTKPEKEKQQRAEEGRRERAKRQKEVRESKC

GPQCQKWMQTCDARRKCCEGFVCRLWCKKKLW-OH (cysteine pairing not given here) [NV1D3006]
hNav1.7 QP % blk [1]: 52.3% @ 10 nM

GPQCQKWMQTCDAERKCCEGFVCRLWCKKKLW-NH2 [NV1D2775-NH2]
selectivity towards Nav1.7 compared to recombinant Protoxin-II [2]: improved selectivity

Ac-QCQKWMQTCDAERKCCEGFSCTLWCKKKLW-NH2 [(-GP) N-Ac-NV1D2974-NH2]
selectivity towards Nav1.7 compared to recombinant Protoxin-II [2]: improved selectivity

GPQCQKWMQSCDRERKCCEGFVCTLWCRKKLW-OH (cysteine pairing not given here) [NV1D3359]
selectivity towards Nav1.7 compared to recombinant Protoxin-II [2]: improved selectivity

recombinant Protoxin-II (peptide)
IC50 (QPatch electrophysiology assay) [3]: 6.2e-08 M | ratio of IC50 for Nav1.6 to IC50 for Nav1.7 (QPatch) [3]: 28 fold

GPQCQKWMQTCDAERKCCEGFVCRLWCKKKLW-OH (cysteine pairing not given here) [NV1D2775]
hot plate test latency [4]: significant efficacy | tactile threshold returned to the control level, time post pump implantation [5]: ≤ 48 h | time at which the effect reached the maximum, tactile test [5]: 8 h | anti-hyperalgesic effect first seen, time post-pump implantation [6]: 4 h | thermal latency returned to the control level, time post pump implantation [6]: ≤ 48 h | time at which the effect reached the maximum, thermal test [6]: 8 h | CFA-induced thermal hyperalgesia (thermal latency, Hargreaves test) [6]: reached values close to the cut-off | analgesia (thermal withdrawal latency) in the carrageenan study [7]: significant analgesia | tail flick test latency [8]: significant efficacy | formalin test flinches [9]: significant efficacy | analgesia in the mouse hotplate test (FIG. 8) [10]: significant analgesia | hotplate latency ([10]; mouse): reached values near cut-off

GPYCQKWMQTCDANRKCCEGFSCRLWCKKKLW-NH2 [NV1D3586-NH2]
selectivity towards Nav1.7 compared to recombinant Protoxin-II [2]: improved selectivity

GPQCQKWMQTCDRERKCCEGFVCTLWCRKKLWGSAPAPAPAPAPGSCCNCSSKWCRDHSRCC [NV1D3799]
hNav1.7 QP % blk [1]: 22.2% @ 30 nM

GPQCQKWMQTCDRNRKCCEGFVCTLWCRKKLW-OH (cysteine pairing not given here) [NV1D3044]
selectivity towards Nav1.7 compared to recombinant Protoxin-II [2]: improved selectivity

GPQCQKWMQTCDRERKCCEGFVCTLWCRKKLW-NH2 [NV1D3034-NH2]
selectivity towards Nav1.7 compared to recombinant Protoxin-II [2]: improved selectivity

GPQCQKWMQTCDRERKCCQGFVCTLWCRKKLW-OH (cysteine pairing not given here) [NV1D3388]
selectivity towards Nav1.7 compared to recombinant Protoxin-II [2]: improved selectivity

GPQCQKWMQTCDRERKCCEGFVCTLWCRKKLW-OH (cysteine pairing not given here) [NV1D3034]
hot plate test latency [4]: significant efficacy | CFA-induced thermal hyperalgesia (thermal latency, Hargreaves test) [6]: completely reversed | tail flick test latency [8]: significant efficacy | formalin test flinches [9]: significant efficacy

GPYCQKWMQTCDANRKCCEGFSCRLWCKKKLW-OH (cysteine pairing not given here) [NV1D3586]
selectivity towards Nav1.7 compared to recombinant Protoxin-II [2]: improved selectivity

GPACQKWMQTCDRNRKCCEGFVCTLWCRKKLW-OH (cysteine pairing not given here) [NV1D3541]
selectivity towards Nav1.7 compared to recombinant Protoxin-II [2]: improved selectivity

GPQCQKWMQTCDRERKCCEGFVCTLWCRKKLW-NH-methyl [NV1D3034-NH-methyl]
selectivity towards Nav1.7 compared to recombinant Protoxin-II [2]: improved selectivity | CFA-induced thermal hyperalgesia [6]: readily reversed

GPQCQKWMQTCDRTRKCCEGFVCTLWCRKKLW-OH (cysteine pairing not given here) [NV1D3368]
selectivity towards Nav1.7 compared to recombinant Protoxin-II [2]: improved selectivity | CFA-induced thermal hyperalgesia (thermal latency, Hargreaves test) [6]: fully reversed

wild type Protoxin-II (peptide)
IC50 (FLIPR assay, veratridine-induced membrane depolarization) [11]: 4 nM

GPQCQKWMQTCDAERKCCEGFSCTLWCKKKLW-NH2 [NV1D2974-NH2]
selectivity towards Nav1.7 compared to recombinant Protoxin-II [2]: improved selectivity

GPACQKWMQTCDANRKCCEGFSCRLWCKKKLW-OH (cysteine pairing not given here) [NV1D3587]
selectivity towards Nav1.7 compared to recombinant Protoxin-II [2]: improved selectivity

GPQCQKWMQTCDRTRKCCEGFVCTLWCRKKLW-NH2 [NV1D3368-NH2]
selectivity towards Nav1.7 compared to recombinant Protoxin-II [2]: improved selectivity | CFA-induced thermal hyperalgesia [6]: readily reversed

GPQCQKWMQTCDAERKCCEGFSCTLWCKKKLW-OH (cysteine pairing not given here) [NV1D2974]
selectivity towards Nav1.7 compared to recombinant Protoxin-II [2]: improved selectivity

GPQCQKWMQTCDRERKCCEGFVCTLWCRKKLW-NH-butyl [NV1D3034-NH-butyl]
selectivity towards Nav1.7 compared to recombinant Protoxin-II [2]: improved selectivity

Ac-QCQKWMQTCDRERKCCEGFVCTLWCRKKLW-NH2 [(-GP) N-Ac-NV1D3034-NH2]
selectivity towards Nav1.7 compared to recombinant Protoxin-II [2]: improved selectivity
